Assay results reported in patent publication US20070128217A1 (priority 2003, published 2007).

Legend:
[1] = test system: antibodies in sera from SARS patients (sera 1a, 1b, 2, 6, 37, 62, London, SARS-yellow, SARS-green); assay type: binding, human; set-up: Binding of serum 6 to linear peptides of protein X1 of SARS-CoV Urbani / Binding of serum 37 to linear peptides of protein X1 of SARS-CoV Urbani / Binding of serum 6 to looped/cyclic peptide (PEPSCAN-ELISA) / Binding of serum 37 to looped/cyclic peptide (PEPSCAN-ELISA) / Binding of serum 37 to looped/cyclic peptides of protein X1 of SARS-CoV Urbani / Binding of serum 6 to linear peptides of protein X2 / Binding of serum 37 to linear peptides of protein X2 / Binding of serum 37 to looped/cyclic peptides of protein X2 of SARS-CoV Urbani / Binding of serum 6 to linear peptides of protein M of SARS-CoV Urbani / Binding of serum 37 to linear peptides of protein M of SARS-CoV Urbani / Binding of serum 6 to looped/cyclic peptides of protein M of SARS-CoV Urbani / Binding of serum 37 to looped/cyclic peptides of protein M of SARS-CoV Urbani / Binding of serum 6 to linear peptides of protein X3 of SARS-CoV Urbani / Binding of serum 37 to linear peptides of protein X3 of SARS-CoV Urbani / Binding of serum 37 to looped/cyclic peptides of protein X3 of SARS-CoV Urbani / Binding of serum 6 to linear peptides of protein X4 of SARS-CoV Urbani / Binding of serum 37 to linear peptides of protein X4 of SARS-CoV Urbani / Binding of serum 37 to looped/cyclic peptides of protein X4 of SARS-CoV Urbani / Binding of serum 6 to linear peptides of protein X5 of SARS-CoV Urbani / Binding of serum 37 to linear peptides of protein X5 of SARS-CoV Urbani / Binding of serum 37 to looped/cyclic peptides of protein X5 of SARS-CoV Urbani / Binding of serum 6 to linear peptides of protein N of SARS-CoV Urbani / Binding of serum 37 to linear peptides of protein N of SARS-CoV Urbani / Binding of serum 6 to linear peptide (PEPSCAN-ELISA) / Binding of serum 1a to looped/cyclic peptides of protein N of SARS-CoV Urbani / Binding of serum 1b to looped/cyclic peptides of protein N of SARS-CoV Urbani / Binding of serum 2 to looped/cyclic peptides of protein N of SARS-CoV Urbani / Binding of serum 6 to looped/cyclic peptides of protein N of SARS-CoV Urbani / Binding of serum 37 to looped/cyclic peptides of protein N of SARS-CoV Urbani / Binding of serum 62 to looped/cyclic peptides of protein N of SARS-CoV Urbani / Binding of serum London to looped/cyclic peptides of protein N of SARS-CoV Urbani / Binding of serum SARS-green to looped/cyclic peptides of protein N of SARS-CoV Urbani: unit not given here
[2] = test system: control sera (pooled serum of ten healthy LUMC hospital workers; commercial negative donor pooled serum from the Dutch bloodbank); assay type: binding, human; set-up: Binding of Control serum LUMC to linear peptides / Binding of Control serum Blood-bank to linear peptides / Binding of Control serum LUMC to looped peptides / Binding of Control Serum Blood-Bank to Looped peptides / Binding of Control serum LUMC to linear peptides of the protein M of SARS-CoV Urbani / Binding of Control serum Blood-bank to linear peptides of the protein M of SARS-CoV Urbani / Binding of Control serum LUMC to looped peptides of the protein M of SARS-CoV Urbani / Binding of Control Serum Blood-Bank to Looped peptides of the protein M of SARS-CoV Urbani: unit not given here
[3] = test system: rabbit serum obtained by immunizing a rabbit with the SARS-CoV strain Frankfurt 1; assay type: binding; set-up: Binding of a rabbit serum to linear peptides / Binding of a rabbit serum to looped peptides / Rabbit serum linear peptides / Rabbit serum looped peptides / Binding of a rabbit serum to linear peptides of protein N of SARS-CoV Urbani (Rabbit serum linear peptides) / Binding of a rabbit serum to looped/cyclic peptides of protein N of SARS-CoV Urbani (Rabbit serum looped peptides): unit not given here

Sequence | Binding of serum 1a to linear peptides of protein X2 [1] | Binding of serum 1a to looped/cyclic peptides of protein X2 of SARS-CoV Urbani [1] | Binding of serum 1b to linear peptides of protein X2 [1] | Binding of serum 1b to looped/cyclic peptides of protein X2 of SARS-CoV Urbani [1] | Binding of serum 2 to linear peptides of protein X2 [1] | Binding of serum 2 to looped/cyclic peptides of protein X2 of SARS-CoV Urbani [1] | Binding of serum 6 to linear peptides of protein X2 [1] | Binding of serum 6 to looped/cyclic peptides of protein X2 of SARS-CoV Urbani [1] | Binding of serum 37 to linear peptides of protein X2 [1] | Binding of serum 37 to looped/cyclic peptides of protein X2 of SARS-CoV Urbani [1] | Binding of serum 62 to looped/cyclic peptides of protein X2 of SARS-CoV Urbani [1] | Binding of serum London to looped/cyclic peptides of protein X2 of SARS-CoV Urbani [1] | Binding of serum SARS-green to looped/cyclic peptides of protein X2 of SARS-CoV Urbani [1] | Binding of serum SARS-yellow to looped/cyclic peptides of protein X2 of SARS-CoV Urbani [1] | Binding of Control Serum Blood-Bank to Looped peptides [2] | Binding of Control serum Blood-bank to linear peptides [2] | Binding of Control serum LUMC to linear peptides [2] | Binding of Control serum LUMC to looped peptides [2] | Binding of a rabbit serum to linear peptides [3] | Binding of a rabbit serum to looped peptides [3] | other results
SQIQLSLLKVTAFQH | 0.6 | 0.5 | 0.5 | 0.5 | 0.4 | 0.4 | 0.5 | 0.6 | 0.5 | 0.4 | 0.6 | 1.0 | 0.2 | 0.7 | 0.6 | 0.5 | 0.7 | 0.6 | 0.7 | 0.5 | Binding of serum 62 to linear peptides of protein X2 [1]: 0.4; Binding of serum London to linear peptides of protein X2 [1]: 0.3; Binding of serum SARS-green to linear peptides of protein X2 [1]: 0.2; Binding of serum SARS-yellow to linear peptides of protein X2 [1]: 0.3
CKSKNPLLYDANYFV | – | – | – | – | – | – | – | – | – | – | – | – | – | – | 0.6 | 0.5 | 0.8 | 0.8 | 0.1 | 0.6 | Binding of serum 1a to linear peptides of protein X1 of SARS-CoV Urbani [1]: 0.8; Binding of serum 1a to looped/cyclic peptide (PEPSCAN-ELISA) [1]: 0.8; Binding of serum 1b to linear peptides of protein X1 of SARS-CoV Urbani [1]: 0.5; Binding of serum 1b to looped/cyclic peptide (PEPSCAN-ELISA) [1]: 0.6; Binding of serum 2 to linear peptides of protein X1 of SARS-CoV Urbani [1]: 0.5; Binding of serum 2 to looped/cyclic peptide (PEPSCAN-ELISA) [1]: 0.5; Binding of serum 6 to linear peptides of protein X1 of SARS-CoV Urbani [1]: 0.6; Binding of serum 6 to looped/cyclic peptide (PEPSCAN-ELISA) [1]: 0.4; Binding of serum 37 to linear peptides of protein X1 of SARS-CoV Urbani [1]: 0.7; Binding of serum 37 to looped/cyclic peptide (PEPSCAN-ELISA) [1]: 0.8; Binding of serum 62 to linear peptides of protein X1 of SARS-CoV Urbani [1]: 0.5; Binding of serum 62 to looped/cyclic peptide (PEPSCAN-ELISA) [1]: 0.8; Binding of serum London to linear peptides of protein X1 of SARS-CoV Urbani [1]: 0.3; Binding of serum London to looped/cyclic peptide (PEPSCAN-ELISA) [1]: 0.2; Binding of serum SARS-green to linear peptides of protein X1 of SARS-CoV Urbani [1]: 0.2; Binding of serum SARS-green to looped/cyclic peptide (PEPSCAN-ELISA) [1]: 0.3; Binding of serum SARS-yellow to linear peptides of protein X1 of SARS-CoV Urbani [1]: 0.2; Binding of serum SARS-yellow to looped/cyclic peptide (PEPSCAN-ELISA) [1]: 0.5
CWLCWKCKSKNPLLY | – | – | – | – | – | – | – | – | – | – | – | – | – | – | 0.6 | 0.9 | 0.7 | 0.7 | 0.2 | 0.7 | Binding of serum 1a to looped/cyclic peptide (PEPSCAN-ELISA) [1]: 0.7; Binding of serum 1b to looped/cyclic peptide (PEPSCAN-ELISA) [1]: 0.4; Binding of serum 2 to looped/cyclic peptide (PEPSCAN-ELISA) [1]: 0.5; Binding of serum 6 to looped/cyclic peptide (PEPSCAN-ELISA) [1]: 0.7; Binding of serum 37 to looped/cyclic peptide (PEPSCAN-ELISA) [1]: 0.7; Binding of serum 62 to looped/cyclic peptide (PEPSCAN-ELISA) [1]: 0.7; Binding of serum London to looped/cyclic peptide (PEPSCAN-ELISA) [1]: 0.3; Binding of serum SARS-green to looped/cyclic peptide (PEPSCAN-ELISA) [1]: 0.3; Binding of serum SARS-yellow to looped/cyclic peptide (PEPSCAN-ELISA) [1]: 0.5; Recognition of the peptide by sera of SARS-CoV infected individuals, and form (linear, looped/cyclic) in which it is recognized [1]: recognized in linear form
KVTAFQHQNSKKTTK | 0.3 | 0.2 | 0.2 | 0.2 | 0.2 | 0.0 | 0.2 | 0.0 | 0.3 | 0.2 | 0.3 | 0.1 | 0.0 | 0.1 | 0.3 | 0.2 | 0.3 | 0.3 | 0.6 | 0.2 | Binding of serum 62 to linear peptides of protein X2 [1]: 0.2; Binding of serum London to linear peptides of protein X2 [1]: 0.1; Binding of serum SARS-green to linear peptides of protein X2 [1]: 0.0; Binding of serum SARS-yellow to linear peptides of protein X2 [1]: 0.4
VSTNLCTHSFRKKQV | – | 0.5 | – | 0.3 | – | 0.6 | – | 0.5 | – | 0.5 | 0.6 | 0.1 | 0.3 | 0.4 | 0.5 | 0.8 | 0.6 | 0.7 | 0.3 | 0.2 | Recognition of the peptide by sera of SARS-CoV infected individuals, and form (linear, looped/cyclic) in which it is recognized [1]: recognized in linear form
GKVLPFHRWHTMVQT | – | – | – | – | – | – | – | – | – | – | – | – | – | – | 0.5 | 0.6 | 0.3 | 0.5 | – | – | Binding of serum 1a to linear peptides of protein X5 of SARS-CoV Urbani [1]: 0.8; Binding of serum 1a to looped/cyclic peptides of protein X5 of SARS-CoV Urbani [1]: 0.8; Binding of serum 1b to linear peptides of protein X5 of SARS-CoV Urbani [1]: 0.0; Binding of serum 1b to looped/cyclic peptides of protein X5 of SARS-CoV Urbani [1]: 0.5; Binding of serum 2 to linear peptides of protein X5 of SARS-CoV Urbani [1]: 0.6; Binding of serum 2 to looped/cyclic peptides of protein X5 of SARS-CoV Urbani [1]: 0.6; Binding of serum 6 to linear peptides of protein X5 of SARS-CoV Urbani [1]: 0.3; Binding of serum 6 to looped/cyclic peptides of protein X5 of SARS-CoV Urbani [1]: 0.4; Binding of serum 37 to linear peptides of protein X5 of SARS-CoV Urbani [1]: 0.5; Binding of serum 37 to looped/cyclic peptides of protein X5 of SARS-CoV Urbani [1]: 0.6; Binding of serum 62 to linear peptides of protein X5 of SARS-CoV Urbani [1]: 0.8; Binding of serum 62 to looped/cyclic peptides of protein X5 of SARS-CoV Urbani [1]: 0.5; Binding of serum London to linear peptides of protein X5 of SARS-CoV Urbani [1]: 0.8; Binding of serum London to looped/cyclic peptides of protein X5 of SARS-CoV Urbani [1]: 0.3; Binding of serum SARS-green to linear peptides of protein X5 of SARS-CoV Urbani [1]: 0.3; Binding of serum SARS-green to looped/cyclic peptides of protein X5 of SARS-CoV Urbani [1]: 0.5; Binding of serum SARS-yellow to linear peptides of protein X5 of SARS-CoV Urbani [1]: 0.1; Binding of serum SARS-yellow to looped/cyclic peptides of protein X5 of SARS-CoV Urbani [1]: 0.4; Rabbit serum linear peptides [3]: 0.0; Rabbit serum looped peptides [3]: 0.3
